We go through 59 compounds from patent US7507727B2, “Substituted quinobenzoxazine analogs and methods of using thereof” (Cylene Pharmaceuticals, Inc., priority 2003, dated 2009).

Each structure is given as a SMILES string. Where two headings read alike, the source gives them in different places.

The test deals with c-Myc template DNA (c-myc quadruplex). Description: Quadruplex binding / stop assay (Taq polymerase arrest, capillary electrophoresis).
The mark [1] stands for this setting: read-out: Stop Data c-Myc μM, concentration at which 50% of the DNA was arrested (arrested:full-length 1:1).
[2] abbreviates: read-out: S DATA, Table 1D, stop assay data.

For the compound `CN(C)CCCCNC(=O)c1cn2c3c(c(NCCCCN(C)C)c(F)cc3c1=O)Oc1cc3ccccc3cc1-2` [compound 126], the IC50 under setting [1] was 1.75 µM.
`CN1CCC[C@@H]1CCNC(=O)c1cn2c3c(c(N4CCC(c5cnccn5)C4)c(F)cc3c1=O)Oc1cc3ccccc3cc1-2` (some centres unmarked) [compound 356]: the IC50 under setting [1] amounted to 0.85 µM.
In the case of `O=C(NCCN1CCCC1)c1cn2c3c(c(NCCN4CCOCC4)c(F)cc3c1=O)Oc1cc(Cl)ccc1-2` [compound 1814], the IC50 under setting [2] came to 7.2 µM.
In the case of `O=C(NCCCN1CCOCC1)c1cn2c3c(c(NCCN4CCOCC4)ccc3c1=O)Oc1cc3ccccc3cc1-2` [compound 1548], under setting [2], the IC50 is more than 15 µM.
For the compound `CCN(CC)CCCC(C)Nc1c(F)cc2c(=O)c(C(=O)NCCC3CCCN3C)cn3c2c1Oc1cc2ccccc2cc1-3` (centres unmarked) [compound 436], the IC50 under setting [1] is 0.75 µM.
As to `CC(C)(C)OC(=O)NC1CCN(C(=O)c2cn3c4c(c(NCCN5CCOCC5)c(F)cc4c2=O)Oc2ccccc2-3)C1` (centres unmarked) [compound 1607], the IC50 under setting [2] was more than 15 µM.
For `CN1CCN(c2c(F)cc3c(=O)c(C(=O)NCCN4CCCC4)cn4c3c2Oc2cc(Cl)ccc2-4)CC1` [compound 1817], the IC50 under setting [2] was determined as 10 µM.
On to `CN1CCCC1CCNC(=O)c1cn2c3c(c(N(C)C4CCNC4)c(F)cc3c1=O)Oc1cc3ccccc3cc1-2` (centres unmarked) [compound 439], for which, under setting [1], the IC50 came to 0.75 µM.
With `O=C(NCCN1CCCC1)c1cn2c3c(c(SCCc4cnccn4)c(F)cc3c1=O)Oc1ccccc1-2` [compound 1785], the IC50 under setting [2] was more than 15 µM.
As for `CN1CCCC1CCNC(=O)c1cn2c3c(c(N4CCC(N5CCCC5)CC4)c(F)cc3c1=O)Oc1cc3ccccc3cc1-2` (centres unmarked) [compound 1492], the IC50 under setting [2] is 0.75 µM.
On the same count and under the same terms, in the case of `O=C(NCCN1CCCC1)c1cn2c3c(c(N4CCN(Cc5ccco5)CC4)c(F)cc3c1=O)Oc1cc(Cl)ccc1-2` [compound 1829] it was 10 µM.
Turning to `Cc1ncn(C(=O)c2cn3c4c(c(N5CCC(NC(=O)OC(C)(C)C)C5)c(F)cc4c2=O)Oc2cc4ccccc4cc2-3)c1CO` (centres unmarked) [compound 187], the IC50 under setting [1] is 1.75 µM.
Still for that read-out and setting: the value for `CN(C)CCCCNc1ccc2c(=O)c(C(=O)NCCC3CCCN3C)cn3c2c1Oc1cc2ccccc2cc1-3` (centres unmarked) [compound 275] was 1.75 µM.
Turning to `N=C(N)NCCCNC(=O)c1cn2c3c(c(N4CC5CCCNC5C4)c(F)cc3c1=O)Oc1cc3ccccc3cc1-2` (centres unmarked) [compound 1647], under setting [2], the IC50 came out at 1 µM.
The same measure, in the same setting: in the case of `CC1CCCN(CCCNC(=O)c2cn3c4c(c(N5CCC(N)C5)c(F)cc4c2=O)Oc2cc4ccccc4cc2-3)C1` (centres unmarked) [compound 1712] it was more than 15 µM; in that of `O=C(NCCN1CCCC1)c1cn2c3c(c(N4CCC(c5cnccn5)C4)c(F)cc3c1=O)Oc1ccccc1-2` (centres unmarked) [compound 1724], 11 µM.
The same measure, in the same setting: in the case of `COc1ccc(CCNC(=O)c2cn3c4c(c(N5CCC(N)C5)c(F)cc4c2=O)Oc2cc4ccccc4cc2-3)cc1OC` (centres unmarked) [compound 1705] it was more than 15 µM.
Take `CN1CCN(CCCNc2c(F)cc3c(=O)c(C(=O)NCCC4CCCN4C)cn4c5cc6c(=O)c7ccccc7c(=O)c6cc5oc2c34)CC1` (centres unmarked) [compound 349]: the IC50 under setting [1] turned out to be 0.9 µM.
Still for that read-out and setting: in the case of `O=C(CCN1CCCC1)Nc1c(F)cc2c(=O)c(C(=O)NCCN3CCCC3)cn3c2c1Oc1cc2ccccc2cc1-3` [compound 90] it was 2.5 µM; in that of `CN1CCCC1CCNCC(=O)N[C@@H]1CCN(c2c(F)cc3c(=O)c(C(=O)NCCC4CCCN4C)cn4c3c2Oc2cc3c(cc2-4)oc2ccccc23)C1` (some centres unmarked) [compound 410], 0.75 µM; in that of `CN1CCN(CCCNc2c(F)cc3c(=O)c(C(=O)N4CCN(C)CC4)cn4c5cc6c(=O)c7ccccc7c(=O)c6cc5oc2c34)CC1` [compound 170], 1.75 µM.
The same measure, in the same setting: the value for `O=C(c1cn2c3c(c(NCCCNC4CCCCC4)c(F)cc3c1=O)Oc1cc3ccccc3cc1-2)N1CCOCC1` [compound 117] was 1.75 µM.
Regarding `CC(C)N1CCN(c2c(F)cc3c(=O)c(C(=O)NCCN4CCOCC4)cn4c3c2Oc2cc(Cl)ccc2-4)CC1` [compound 1805], under setting [2], the IC50 was more than 15 µM.
For the compound `COC(=O)N[C@H]1CCN(c2c(F)cc3c(=O)c(C(=O)NCCC4CCCN4C)cn4c3c2Oc2cc3ccccc3cc2-4)C1` (some centres unmarked) [compound 1515], the IC50 under setting [2] is more than 15 µM.
Regarding `CN1CCN(c2c(F)cc3c(=O)c(C(=O)NCCC4CCCN4C)cn4c5cc6c(=O)c7ccccc7c(=O)c6cc5oc2c34)CC1` (centres unmarked) [compound 351], under setting [1], the IC50 turned out to be 0.9 µM.
For the compound `CN1CCN(CCCNc2c(F)cc3c(=O)c(C(=O)NCCCCN)cn4c3c2Oc2ccccc2-4)CC1` [compound 1579], under setting [2], the IC50 is more than 15 µM.
`CN1CCC(N(C)C(=O)c2cn3c4c(c(N5CCC(N)C5)c(F)cc4c2=O)Oc2cc4ccccc4cc2-3)CC1` (centres unmarked) [compound 198]: the IC50 under setting [1] is 1.75 µM.
Take `CN1CCCC1CCNC(=O)c1cn2c3c(c(NC4CC(C)(C)NC(C)(C)C4)c(F)cc3c1=O)Oc1cc3ccccc3cc1-2` (centres unmarked) [compound 1478]: the IC50 under setting [2] was found to be 1 µM.
`CC1(C)CC(NC(=O)c2cn3c4c(c(N5CCC(N)C5)c(F)cc4c2=O)Oc2cc4ccccc4cc2-3)CC(C)(C)N1` (centres unmarked) [compound 444]: under setting [1], the IC50 was 0.75 µM.
With `CCN(CC)CCCC(C)Nc1c(F)cc2c(=O)c(C(=O)NCCC3CCCN3C)cn3c2c1Oc1cc2ccccc2cc1-3` (centres unmarked) [compound 1499], the IC50 under setting [2] was 0.75 µM.
Take `CN1CCN(CCCNc2c(F)cc3c(=O)c(C(=O)N4CCC(N)C4)cn4c3c2Oc2ccccc2-4)CC1` (centres unmarked) [compound 1628]: under setting [2], the IC50 was more than 15 µM.
Consider `CC(C)(C)OC(=O)N[C@@H]1CCN(c2c(F)cc3c(=O)c(C(=O)NCCCN=C(N)N)cn4c3c2Oc2cc3ccccc3cc2-4)C1` [compound 429], for which, under setting [1], the IC50 turned out to be 0.75 µM.
As for `CN1CCCC1CCNC(=O)c1cn2c3c(c(NCCN4CCCC4)ccc3c1=O)Oc1cc3ccccc3cc1-2` (centres unmarked) [compound 1517], the IC50 under setting [2] was 0.75 µM.
As to `CN1CCN(CCCNC(=O)c2cn3c4c(c(N5CCC(NC(=O)OC(C)(C)C)C5)c(F)c(N)c4c2=O)Oc2cc4ccccc4cc2-3)CC1` (centres unmarked) [compound 231], the IC50 under setting [1] came to 1.75 µM.
`O=C(NCCN1CCCC1)c1cn2c3c(c(NCCN4CCCC4)c(F)cc3c1=O)Oc1ccccc1-2` [compound 1597]: under setting [2], the IC50 was more than 15 µM.
Regarding `CN1CCN(CCCNC(=O)c2cn3c4c(c(N5CC[C@@H](N)C5)c(F)cc4c2=O)Oc2c-3ccc3ccccc23)CC1` [compound 304], the IC50 under setting [1] was found to be 1.13 µM.
On to `CN1CCCC1CCNC(=O)c1cn2c3c(c(N4CCNC(c5cccnc5)C4)c(F)cc3c1=O)Oc1cc3ccccc3cc1-2` (centres unmarked) [compound 1513], for which, under setting [2], the IC50 was 1.75 µM.
`CN1CCCC1CCNC(=O)c1cn2c3c(c(NCC4CCN(C(=O)OC(C)(C)C)C4)c(F)cc3c1=O)Oc1cc3ccccc3cc1-2` (centres unmarked) [compound 1506]: the IC50 under setting [2] amounted to 0.75 µM.
On the same count and under the same terms, in the case of `CC(C)N1CCN(c2c(F)cc3c(=O)c(C(=O)N4CCC(N5CCCC5)CC4)cn4c3c2Oc2ccccc2-4)CC1` [compound 1569] it was more than 15 µM.
On to `CN(C)CCCCNC(=O)c1cn2c3c(c(NCCCN4CCN(C)CC4)c(F)cc3c1=O)Oc1cc3ccccc3cc1-2` [compound 396], for which the IC50 under setting [1] is 0.75 µM.
Consider `CC(C)N1CCN(c2c(F)cc3c(=O)c(C(=O)NCCN4CCCC4)cn4c3c2Oc2cccnc2-4)CC1` [compound 1801], for which the IC50 under setting [2] came to 8.2 µM.
On to `CN1CCCC1CCNC(=O)c1cn2c3cc4c(cc3oc3c(NCCCN5CCOCC5)c(F)cc(c1=O)c32)c(=O)c1ccccc14` (centres unmarked) [compound 420], for which, under setting [1], the IC50 amounted to 0.75 µM.
On to `CC1(C)CC(NC(=O)c2cn3c4c(c(NCCN5CCOCC5)ccc4c2=O)Oc2cc4ccccc4cc2-3)CC(C)(C)N1` [compound 1549], for which, under setting [2], the IC50 is more than 15 µM.
On to `CN1CCN(CCCNC(=O)c2cn3c4cc5c(=O)c6ccccc6c(=O)c5cc4oc4c(NCCCN5CCN(C)CC5)c(F)cc(c2=O)c43)CC1` [compound 350], for which the IC50 under setting [1] was 0.9 µM.
Regarding `CN(C)CCCCNc1ccc2c(=O)c(C(=O)NCCN3CCCC3)cn3c2c1Oc1cc2ccccc2cc1-3` [compound 1540], the IC50 under setting [2] is 1 µM.
Take `Nc1c(F)c(NCCCN2CCOCC2)c2c3c1c(=O)c(C(=O)O)cn3-c1cc3ccccc3cc1O2` [compound 14]: under setting [1], the IC50 turned out to be 1.75 µM.
`CN1CCCC1CCNC(=O)c1cn2c3cc4oc5cc([N+](=O)[O-])ccc5[nH]c4cc3oc3c(NCCN4CCOCC4)c(F)cc(c1=O)c32` (centres unmarked) [compound 407]: under setting [1], the IC50 amounted to 0.75 µM.
On the same count and under the same terms, the value for `CN1CCN(CCCNC(=O)c2cn3c4c(c(NCCCN5CCOCC5)c(F)cc4c2=O)Oc2cc4ccccc4cc2-3)CC1` [compound 49] was 2.5 µM; that for `N[C@H]1CCN(C(=O)c2cn3c4cc5c(cc4oc4c(NCCN6CCCC6)c(F)cc(c2=O)c43)c(=O)c2ccccc25)C1` [compound 214] was 1.75 µM.
On the same count and under the same terms, in the case of `CN(C)CCCCNC(=O)c1cn2c3cc4c(=O)c5ccccc5c(=O)c4cc3oc3c(NCCCN4CCOCC4)c(F)cc(c1=O)c32` [compound 167] it was 1.75 µM.
On to `CN1CCCC1CCNC(=O)c1cn2c3c(c(NCc4ccccc4N4CCOCC4)c(F)cc3c1=O)Oc1cc3ccccc3cc1-2` (centres unmarked) [compound 1511], for which, under setting [2], the IC50 stood at 1.75 µM.
With `O=C(NCCCN1CCOCC1)c1cn2c3c(c(NCCCN4CCOCC4)c(F)cc3c1=O)Oc1cc3c(cc1-2)oc1ccccc13` [compound 143], the IC50 under setting [1] was 1.75 µM.
With `CCCCOCCCNC(=O)c1cn2c3c(c(N4CCC(N)C4)c(F)cc3c1=O)Oc1cc3ccccc3cc1-2` (centres unmarked) [compound 1692], the IC50 under setting [2] is more than 15 µM.
For `CN1CCCC1CCNC(=O)c1cn2c3c(c(N4CCC(c5cccnc5)C4)c(F)cc3c1=O)Oc1cc3ccccc3cc1-2` (centres unmarked) [compound 443], under setting [1], the IC50 came out at 0.75 µM.
Take `CN(C)CCCCNC(=O)c1cn2c3cc4c(cc3oc3c(NCCC5CCCN5C)c(F)cc(c1=O)c32)c(=O)c1ccccc14` (centres unmarked) [compound 423]: the IC50 under setting [1] was 0.75 µM.
Same read-out and setting: the value for `CN(C)CCCCNC(=O)c1cn2c3cc4oc5cc([N+](=O)[O-])ccc5[nH]c4cc3oc3c(NCCCN4CCOCC4)c(F)cc(c1=O)c32` [compound 555] was 0.375 µM.
Consider `CCN(CC)CCCC(C)NC(=O)c1cn2c3c(c(N4CC5CCCNC5C4)ccc3c1=O)Oc1ccccc1-2` (centres unmarked) [compound 1730], for which, under setting [2], the IC50 is more than 15 µM.
For `CN(C)/C=N/CCCCNC(=O)c1cn2c3c(c(N4CC[C@@H](NC(=O)OC(C)(C)C)C4)c(F)cc3c1=O)Oc1cc3ccccc3cc1-2` [compound 212], under setting [1], the IC50 came to 1.75 µM.
For the compound `NC1CCN(C(=O)c2cn3c4c(c(NCCN5CCCC5)c(F)cc4c2=O)Oc2ccccc2-3)C1` (centres unmarked) [compound 1629], under setting [2], the IC50 was more than 15 µM.
